Experimental data as given in ChEMBL document CHEMBL4507296 (2021).
Active and inactive are the calls of the source. The rule behind the calls is not given here.

Legend:
[1] = biological target: Death-associated protein kinase 2 (Homo sapiens) (UniProt Q9UIK4); conditions: Compound concentration 1000.0 nM
[2] = biological target: Muscarinic acetylcholine receptor M3 (Homo sapiens) (UniProt P20309); assay: Muscarinic M3 (human) CEREP ligand profiling; conditions: Compound concentration 10.0 uM
[3] = test system: Receptor-type tyrosine-protein kinase FLT3 (Homo sapiens), P36888 [K663Q]; conditions: Compound concentration 1000.0 nM
[4] = biological target: Serine/threonine-protein kinase MRCK gamma (Homo sapiens) (UniProt Q6DT37); conditions: Compound concentration 1000.0 nM
[5] = biological target: Fibroblast growth factor receptor 2 (Homo sapiens) (UniProt P21802); conditions: Compound concentration 1000.0 nM
[6] = test system: Tyrosine-protein kinase ABL1 (Homo sapiens), P00519 [T315I]; conditions: Compound concentration 1000.0 nM
[7] = biological target: Serine/threonine-protein kinase 32B (Homo sapiens) (UniProt Q9NY57); conditions: Compound concentration 1000.0 nM
[8] = biological target: Serine/threonine-protein kinase SIK2 (Homo sapiens) (UniProt Q9H0K1); conditions: Compound concentration 1000.0 nM
[9] = biological target: Serine/threonine-protein kinase ULK3 (Homo sapiens) (UniProt Q6PHR2); conditions: Compound concentration 1000.0 nM
[10] = test system: Fibroblast growth factor receptor 3 (Homo sapiens), P22607 [G697C]; conditions: Compound concentration 1000.0 nM
Sequence of Fibroblast growth factor receptor 3 (Homo sapiens), P22607 [G697C] (P22607 whole entry G697C): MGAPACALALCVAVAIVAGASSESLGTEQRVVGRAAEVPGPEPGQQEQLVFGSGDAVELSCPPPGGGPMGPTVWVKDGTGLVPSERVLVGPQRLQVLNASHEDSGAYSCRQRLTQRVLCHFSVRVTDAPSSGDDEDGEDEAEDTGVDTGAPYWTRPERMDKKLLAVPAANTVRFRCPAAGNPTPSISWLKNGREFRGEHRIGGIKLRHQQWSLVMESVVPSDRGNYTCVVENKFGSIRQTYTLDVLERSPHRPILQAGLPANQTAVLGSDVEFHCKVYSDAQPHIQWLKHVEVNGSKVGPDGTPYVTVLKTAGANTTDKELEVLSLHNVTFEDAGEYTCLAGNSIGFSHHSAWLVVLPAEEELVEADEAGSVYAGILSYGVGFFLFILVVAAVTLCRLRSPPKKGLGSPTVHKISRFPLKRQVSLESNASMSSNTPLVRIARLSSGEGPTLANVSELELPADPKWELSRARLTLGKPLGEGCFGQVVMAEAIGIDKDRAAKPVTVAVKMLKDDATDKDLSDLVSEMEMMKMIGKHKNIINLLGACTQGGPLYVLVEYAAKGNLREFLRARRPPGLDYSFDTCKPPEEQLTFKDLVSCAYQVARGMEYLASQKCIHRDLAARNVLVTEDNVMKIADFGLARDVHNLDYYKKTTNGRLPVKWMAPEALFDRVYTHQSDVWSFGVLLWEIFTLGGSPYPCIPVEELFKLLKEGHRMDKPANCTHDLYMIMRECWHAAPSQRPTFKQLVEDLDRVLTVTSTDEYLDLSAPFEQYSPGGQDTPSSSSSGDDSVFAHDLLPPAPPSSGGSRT

[11] = biological target: Tyrosine-protein kinase Lck (Homo sapiens) (UniProt P06239); conditions: Compound concentration 1000.0 nM
[12] = biological target: Serine/threonine-protein kinase 17A (Homo sapiens) (UniProt Q9UEE5); conditions: Compound concentration 1000.0 nM
[13] = test system: Tyrosine-protein kinase ABL1 (Homo sapiens), P00519 [F317I]; conditions: Compound concentration 1000.0 nM
[14] = biological target: 5-hydroxytryptamine receptor 1B (Homo sapiens) (UniProt P28222); conditions: Compound concentration 10.0 uM
[15] = test system: Phosphatidylinositol 4,5-bisphosphate 3-kinase catalytic subunit alpha isoform (Homo sapiens), P42336 [I800L]; conditions: Compound concentration 1000.0 nM
[16] = biological target: Activin receptor type-1-like (Homo sapiens) (UniProt P37023); conditions: Compound concentration 1000.0 nM
[17] = biological target: Rhodopsin kinase GRK7 (Homo sapiens) (UniProt Q8WTQ7); conditions: Compound concentration 1000.0 nM
[18] = biological target: Fibroblast growth factor receptor 1 (Homo sapiens) (UniProt P11362); conditions: Compound concentration 1000.0 nM
[19] = biological target: Hormonally up-regulated neu tumor-associated kinase (Homo sapiens) (UniProt P57058); conditions: Compound concentration 1000.0 nM
[20] = biological target: D(4) dopamine receptor (Homo sapiens) (UniProt P21917); conditions: Compound concentration 10.0 uM
[21] = test system: Phosphatidylinositol 4,5-bisphosphate 3-kinase catalytic subunit alpha isoform (Homo sapiens), P42336 [M1043I]; conditions: Compound concentration 1000.0 nM
[22] = biological target: Receptor-interacting serine/threonine-protein kinase 4 (Homo sapiens) (UniProt P57078); conditions: Compound concentration 1000.0 nM
[23] = biological target: Serine/threonine-protein kinase NIM1 (Homo sapiens) (UniProt Q8IY84); conditions: Compound concentration 1000.0 nM
[24] = biological target: cAMP-dependent protein kinase catalytic subunit beta (Homo sapiens) (UniProt P22694); conditions: Compound concentration 1000.0 nM
[25] = biological target: Cyclin-dependent kinase 8 (Homo sapiens) (UniProt P49336); conditions: Compound concentration 1000.0 nM
[26] = biological target: Interleukin-1 receptor-associated kinase 4 (Homo sapiens) (UniProt Q9NWZ3); conditions: Compound concentration 1000.0 nM
[27] = biological target: Casein kinase I isoform alpha-like (Homo sapiens) (UniProt Q8N752); conditions: Compound concentration 1000.0 nM
[28] = test system: Mast/stem cell growth factor receptor Kit (Homo sapiens), P10721 [D816V]; conditions: Compound concentration 1000.0 nM
[29] = biological target: Inhibitor of nuclear factor kappa-B kinase subunit beta (Homo sapiens) (UniProt O14920); conditions: Compound concentration 1000.0 nM
Sequence of Inhibitor of nuclear factor kappa-B kinase subunit beta (Homo sapiens) (O14920 whole entry): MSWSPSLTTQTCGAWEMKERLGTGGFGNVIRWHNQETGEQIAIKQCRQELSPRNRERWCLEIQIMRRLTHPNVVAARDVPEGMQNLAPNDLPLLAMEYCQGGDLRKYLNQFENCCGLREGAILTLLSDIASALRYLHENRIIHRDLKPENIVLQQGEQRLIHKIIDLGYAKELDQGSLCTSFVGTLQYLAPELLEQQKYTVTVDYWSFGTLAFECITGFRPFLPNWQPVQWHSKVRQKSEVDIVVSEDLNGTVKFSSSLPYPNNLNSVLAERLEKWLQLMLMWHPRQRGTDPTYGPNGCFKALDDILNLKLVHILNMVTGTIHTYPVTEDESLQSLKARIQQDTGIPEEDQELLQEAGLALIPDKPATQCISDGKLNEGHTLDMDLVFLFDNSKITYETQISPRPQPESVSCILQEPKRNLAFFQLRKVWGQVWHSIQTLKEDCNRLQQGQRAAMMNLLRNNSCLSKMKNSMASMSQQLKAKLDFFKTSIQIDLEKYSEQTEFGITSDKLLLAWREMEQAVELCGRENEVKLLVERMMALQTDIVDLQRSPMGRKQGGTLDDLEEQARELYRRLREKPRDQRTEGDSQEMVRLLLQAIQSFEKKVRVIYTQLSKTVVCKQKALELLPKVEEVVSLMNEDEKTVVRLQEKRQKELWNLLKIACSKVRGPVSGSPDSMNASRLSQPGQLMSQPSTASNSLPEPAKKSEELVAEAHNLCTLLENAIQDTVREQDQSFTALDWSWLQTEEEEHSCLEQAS

[30] = biological target: Mitogen-activated protein kinase 12 (Homo sapiens) (UniProt P53778); conditions: Compound concentration 1000.0 nM
[31] = biological target: Glycogen synthase kinase-3 alpha (Homo sapiens) (UniProt P49840); conditions: Compound concentration 1000.0 nM
Sequence of Glycogen synthase kinase-3 alpha (Homo sapiens) (P49840 2-483 limits assumed): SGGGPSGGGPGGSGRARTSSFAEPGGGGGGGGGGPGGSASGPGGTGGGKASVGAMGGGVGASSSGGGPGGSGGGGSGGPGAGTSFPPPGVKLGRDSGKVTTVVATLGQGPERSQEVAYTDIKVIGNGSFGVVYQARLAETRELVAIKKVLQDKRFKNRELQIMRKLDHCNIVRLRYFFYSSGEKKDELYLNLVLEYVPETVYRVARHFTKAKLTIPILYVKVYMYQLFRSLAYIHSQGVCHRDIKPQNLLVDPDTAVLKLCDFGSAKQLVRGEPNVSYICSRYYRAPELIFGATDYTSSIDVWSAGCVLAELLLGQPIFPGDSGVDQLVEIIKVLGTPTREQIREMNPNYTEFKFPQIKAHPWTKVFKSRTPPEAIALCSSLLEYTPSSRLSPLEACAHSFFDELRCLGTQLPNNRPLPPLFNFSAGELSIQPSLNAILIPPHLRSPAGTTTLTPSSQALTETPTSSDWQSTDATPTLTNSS

[32] = biological target: Muscarinic acetylcholine receptor M3 (Homo sapiens) (UniProt P20309); conditions: Compound concentration 10.0 uM
[33] = biological target: Leukocyte tyrosine kinase receptor (Homo sapiens) (UniProt P29376); conditions: Compound concentration 1000.0 nM
[34] = test system: Mast/stem cell growth factor receptor Kit (Homo sapiens), P10721 [V559D]; conditions: Compound concentration 1000.0 nM
[35] = biological target: Serine/threonine-protein kinase 38-like (Homo sapiens) (UniProt Q9Y2H1); conditions: Compound concentration 1000.0 nM
[36] = biological target: Transient receptor potential cation channel subfamily M member 8 (Homo sapiens, UniProt Q7Z2W7); assay: Transients WS-12 activation
[37] = biological target: 1-phosphatidylinositol 3-phosphate 5-kinase (Homo sapiens) (UniProt Q9Y2I7); conditions: Compound concentration 1000.0 nM
Sequence of 1-phosphatidylinositol 3-phosphate 5-kinase (Homo sapiens) (Q9Y2I7 whole entry): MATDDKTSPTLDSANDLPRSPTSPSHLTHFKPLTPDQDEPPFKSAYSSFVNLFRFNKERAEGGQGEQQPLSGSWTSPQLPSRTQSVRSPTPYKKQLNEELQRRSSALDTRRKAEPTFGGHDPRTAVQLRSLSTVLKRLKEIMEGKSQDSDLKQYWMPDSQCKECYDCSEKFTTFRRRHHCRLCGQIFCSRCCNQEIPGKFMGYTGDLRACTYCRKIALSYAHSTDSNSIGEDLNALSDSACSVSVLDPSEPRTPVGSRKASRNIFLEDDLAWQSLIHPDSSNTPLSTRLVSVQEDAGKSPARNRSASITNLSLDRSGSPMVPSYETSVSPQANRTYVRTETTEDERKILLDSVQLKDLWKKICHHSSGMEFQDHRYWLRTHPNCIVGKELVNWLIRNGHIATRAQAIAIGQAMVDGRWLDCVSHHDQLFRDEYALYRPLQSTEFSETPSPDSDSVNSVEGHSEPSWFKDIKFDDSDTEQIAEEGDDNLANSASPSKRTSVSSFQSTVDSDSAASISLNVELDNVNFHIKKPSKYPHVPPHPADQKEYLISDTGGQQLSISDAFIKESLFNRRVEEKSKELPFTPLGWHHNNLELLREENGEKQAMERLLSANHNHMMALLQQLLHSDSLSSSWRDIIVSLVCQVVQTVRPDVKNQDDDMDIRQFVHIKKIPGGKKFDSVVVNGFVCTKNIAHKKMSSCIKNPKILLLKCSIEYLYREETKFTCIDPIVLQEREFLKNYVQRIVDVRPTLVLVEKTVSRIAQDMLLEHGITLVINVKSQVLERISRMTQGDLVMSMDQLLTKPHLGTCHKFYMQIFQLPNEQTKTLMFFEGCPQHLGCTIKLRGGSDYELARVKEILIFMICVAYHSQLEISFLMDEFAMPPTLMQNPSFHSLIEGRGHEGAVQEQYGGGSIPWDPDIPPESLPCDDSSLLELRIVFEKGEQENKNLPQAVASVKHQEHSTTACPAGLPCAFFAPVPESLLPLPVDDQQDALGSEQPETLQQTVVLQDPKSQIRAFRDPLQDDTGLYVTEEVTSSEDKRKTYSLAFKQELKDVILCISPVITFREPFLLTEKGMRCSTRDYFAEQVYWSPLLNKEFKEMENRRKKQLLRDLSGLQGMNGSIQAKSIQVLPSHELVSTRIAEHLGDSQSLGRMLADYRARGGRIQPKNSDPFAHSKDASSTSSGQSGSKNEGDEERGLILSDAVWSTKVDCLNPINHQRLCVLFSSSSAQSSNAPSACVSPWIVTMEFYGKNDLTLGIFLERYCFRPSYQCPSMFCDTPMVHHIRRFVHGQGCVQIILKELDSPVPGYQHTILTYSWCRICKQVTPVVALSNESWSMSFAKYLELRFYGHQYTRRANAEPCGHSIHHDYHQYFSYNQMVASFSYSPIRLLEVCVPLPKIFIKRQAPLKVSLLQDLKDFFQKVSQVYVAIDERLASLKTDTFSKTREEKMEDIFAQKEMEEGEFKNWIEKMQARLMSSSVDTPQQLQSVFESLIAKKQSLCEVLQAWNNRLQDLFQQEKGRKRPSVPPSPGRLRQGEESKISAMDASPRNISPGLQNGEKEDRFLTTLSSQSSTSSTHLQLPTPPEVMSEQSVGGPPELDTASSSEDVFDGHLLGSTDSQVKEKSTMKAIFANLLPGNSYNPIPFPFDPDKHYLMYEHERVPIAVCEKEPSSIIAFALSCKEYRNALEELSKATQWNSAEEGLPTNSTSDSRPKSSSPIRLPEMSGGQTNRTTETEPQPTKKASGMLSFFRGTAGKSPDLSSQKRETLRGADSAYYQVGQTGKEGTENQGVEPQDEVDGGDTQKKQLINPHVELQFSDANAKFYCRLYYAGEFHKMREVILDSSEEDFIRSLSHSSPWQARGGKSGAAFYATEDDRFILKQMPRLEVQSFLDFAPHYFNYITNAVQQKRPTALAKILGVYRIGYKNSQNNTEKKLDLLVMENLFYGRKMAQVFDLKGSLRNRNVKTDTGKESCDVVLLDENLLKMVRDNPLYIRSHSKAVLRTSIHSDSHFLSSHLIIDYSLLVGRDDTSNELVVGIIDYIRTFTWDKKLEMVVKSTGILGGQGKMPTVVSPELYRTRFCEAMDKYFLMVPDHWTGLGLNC

[38] = biological target: Calcium/calmodulin-dependent protein kinase type 1G (Homo sapiens) (UniProt Q96NX5); conditions: Compound concentration 1000.0 nM
[39] = biological target: Cyclin-dependent kinase-like 1 (Homo sapiens) (UniProt Q00532); conditions: Compound concentration 1000.0 nM
Sequence of Cyclin-dependent kinase-like 1 (Homo sapiens) (Q00532 whole entry): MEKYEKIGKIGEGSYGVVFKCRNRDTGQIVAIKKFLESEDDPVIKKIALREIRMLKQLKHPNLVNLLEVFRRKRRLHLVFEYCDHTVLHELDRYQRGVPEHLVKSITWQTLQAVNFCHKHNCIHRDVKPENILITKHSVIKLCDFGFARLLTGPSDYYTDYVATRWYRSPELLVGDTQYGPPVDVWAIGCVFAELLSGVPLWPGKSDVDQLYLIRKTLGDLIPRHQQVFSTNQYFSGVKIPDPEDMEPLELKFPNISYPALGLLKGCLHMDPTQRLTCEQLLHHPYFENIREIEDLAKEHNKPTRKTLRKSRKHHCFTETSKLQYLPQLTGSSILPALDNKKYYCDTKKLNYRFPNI

[40] = test system: Tyrosine-protein kinase ABL1 (Homo sapiens), P00519 [E255K]; conditions: Compound concentration 1000.0 nM
[41] = biological target: Serine/threonine-protein kinase VRK2 (Homo sapiens) (UniProt Q86Y07); conditions: Compound concentration 1000.0 nM
[42] = biological target: Serine/threonine-protein kinase Nek9 (Homo sapiens) (UniProt Q8TD19); conditions: Compound concentration 1000.0 nM
[43] = biological target: Myosin light chain kinase family member 4 (Homo sapiens) (UniProt Q86YV6); conditions: Compound concentration 1000.0 nM
[44] = biological target: Macrophage-stimulating protein receptor (Homo sapiens) (UniProt Q04912); conditions: Compound concentration 1000.0 nM
[45] = biological target: Serine/threonine-protein kinase Sgk2 (Homo sapiens) (UniProt Q9HBY8); conditions: Compound concentration 1000.0 nM

Sequence of Muscarinic acetylcholine receptor M3 (Homo sapiens) (P20309 whole entry, looked up): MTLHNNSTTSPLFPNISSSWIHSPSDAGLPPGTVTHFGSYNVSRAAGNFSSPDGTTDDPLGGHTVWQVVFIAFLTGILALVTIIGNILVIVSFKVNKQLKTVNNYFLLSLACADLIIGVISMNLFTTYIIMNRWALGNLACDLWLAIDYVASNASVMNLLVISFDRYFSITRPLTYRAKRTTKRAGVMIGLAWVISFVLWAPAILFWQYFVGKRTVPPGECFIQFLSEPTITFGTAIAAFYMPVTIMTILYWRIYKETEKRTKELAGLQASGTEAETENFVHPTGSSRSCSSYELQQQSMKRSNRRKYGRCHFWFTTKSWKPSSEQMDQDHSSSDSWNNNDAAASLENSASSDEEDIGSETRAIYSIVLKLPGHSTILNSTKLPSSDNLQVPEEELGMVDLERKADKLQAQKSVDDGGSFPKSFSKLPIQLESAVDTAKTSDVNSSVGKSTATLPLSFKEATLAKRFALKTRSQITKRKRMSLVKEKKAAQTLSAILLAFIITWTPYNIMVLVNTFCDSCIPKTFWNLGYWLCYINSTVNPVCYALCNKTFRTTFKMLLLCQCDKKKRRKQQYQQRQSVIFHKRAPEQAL

## C[C@H](c1ccc(F)cc1)N(Cc1cccc(C(=O)O)c1)C(=O)c1cnc2ccccc2c1 [PF-05105679]
[1]
  residual activity: 88%
[2]
  inhibition: 21%
[3]
  residual activity: 100%
[4]
  residual activity: 100%
[5]
  residual activity: 74%
[6]
  residual activity: 85%
[7]
  residual activity: 97%
[8]
  residual activity: 96%
[9]
  residual activity: 82%
[10]
  residual activity: 100%
[11]
  residual activity: 100%
[12]
  residual activity: 86%
[13]
  residual activity: 100%
[14]
  inhibition: 4.38%
[15]
  residual activity: 61%
[16]
  residual activity: 100%
[17]
  residual activity: 100%
[18]
  residual activity: 100%
[19]
  residual activity: 100%
[20]
  inhibition: 10.1%
[21]
  residual activity: 100%
[22]
  residual activity: 100%
[23]
  residual activity: 79%
[24]
  residual activity: 82%
[25]
  residual activity: 100%
[26]
  residual activity: 95%
[27]
  residual activity: 100%
[28]
  residual activity: 100%
[29]
  residual activity: 100%
[30]
  residual activity: 65%
[31]
  residual activity: 100%
[32]
  inhibition: -7.68%
[33]
  residual activity: 90%
[34]
  residual activity: 92%
[35]
  residual activity: 100%
[36]
  IC50: 0.0296 µM (active)
[37]
  residual activity: 100%
[38]
  residual activity: 100%
[39]
  residual activity: 100%
[40]
  residual activity: 100%
[41]
  residual activity: 100%
[42]
  residual activity: 100%
[43]
  residual activity: 99%
[44]
  residual activity: 100%
[45]
  residual activity: 93%
